Source: patent US9546393B2, “Mass spectrometry quantitation of P450 isoforms in hepatocytes” (DH Technologies Development Pte. Ltd., priority 2009, dated 2017)

What was measured:
[1] = test system: CYP 1A2; assay: RNA assay (mRNA by qRT-PCR, Taqman) for CYP 1A2 in treated human hepatocytes; assay type: cell-based; conditions: primary human hepatocytes, 72 hours; 3-MC 2 μM; FIG. 7
[2] = test system: CYP 2B6; assay: CYP 2B6 induction in treated primary human hepatocytes (RNA assay, enzyme activity assay, LC-MSMS protein assay; FIG. 6); assay type: cell-based; conditions: 72 hours, 3-MC 2 μM
Description: Flow rate was 700 μL/min.
The PB is a prototypical inducer for CYP 2B6, by CAR nuclear receptor activation.

[3] = test system: CYP 3A4; assay: CYP 3A4 induction in treated primary human hepatocytes (RNA assay, enzyme activity assay, LC-MSMS protein assay; FIG. 8); conditions: 72 hours, 3-MC 2 μM, PB 1 mM
[4] = test system: CYP 1A2; conditions: primary human hepatocytes, 72 hours; PB 1 mM, RIF 10 μM; FIG. 7

Structure (SMILES)	CYP 1A2 RNA level in RNA assay [1]	changes in expression of CYP 2B6 (induction) [2]	changes in expression of CYP 3A4 (induction) [3]	changes in expression of CYP 1A2 (induction) [4]
Cc1ccc2cc3c(ccc4ccccc43)c3c2c1CC3 [3-MC, 3-methylcholanthrene]	very high levels of RNA	induces basal levels	minimally induces	–
CCC1(c2ccccc2)C(=O)NC(=O)NC1=O [PB, phenobarbital]	–	–	significantly induces	basal levels of 1A2, if any
